# Measurements: PMC9909315, “SY-707, an ALK/FAK/IGF1R inhibitor, suppresses growth and metastasis of breast cancer cells” (Acta Biochimica et Biophysica Sinica, 2022)
# How the values were obtained:
# T47D xenograft = assay: T47D tumor xenograft study; format: in vivo, nude mice
# Description: Due to the strong cell growth inhibition potency of SY-707, we firstly evaluate its in vivo anti-cancer activity in T47D xenograft model mice. In this model, mice were orally administered twice a day with vehicle or SY-707 at dose of 100, 50 or 25 mg/kg after tumor size reached 150–300 mm ^3.
# Next, we evaluated the combination effects of SY-707 and paclitaxel (an approved drug for breast cancer therapy) in T47D xenograft model. Mice bearing T47D breast cancer were divided randomly into 4 groups: vehicle, SY-707 (100 mg/kg/day), paclitaxel (10 mg/kg/week), and SY-707 plus paclitaxel groups.
# MCF-7 cells = assay: Would healing (migration) assay; format: cell-based; details: MCF-7, 24 h, vs control
# Description: (§1) Totally, 5×10 ^5 cells were plated into each well of 6-well plates, and cultured to 70%–80% confluence, then the cell monolayer was gently and slowly scratched with a new 1-mL pipette tip across the center of the well. After scratching, the wells were gently washed with PBS twice to remove the detached cells, and replenished with fresh medium containing indicated concentration of compounds. The treated cells were allowed to grow for additional 24 h, and images were capturedunder a microscope. The migration distance were calculated and analyzed to evaluate the effects of compounds.
# T47D cells = assay: Would healing (migration) assay; format: cell-based; details: 24 h, vs control
# Description: as §1
# [1] = tested on: 4T1 breast cancer metastasis to the lung; assay: Metastasis analysis in vivo (lung nodules, 4T1 model); parameters: species or system nude mice; details: 4T1, treatment alone: SY-707 100 mg/kg/day PO; paclitaxel 10 or 20 mg/kg/week IV; 20 days; not statistically different
# Description: Metastasis was detected in mouse lungs after the mice were sacrificed at the last dosing day. The lungs of each mouse were excised immediately and fixed with 4% paraformaldehyde for 24 h, then the lungs were photographed (three photographs per section per mouse) and the metastatic nodules in the lungs were manually counted and the data was analyzed for compound evaluation.
# Mice were inoculated with 4T1 cells in PBS at right and left flanks expect the normal control group ( Figure 6A), SY-707 with or without paclitaxel was administered for 20 days when tumor volumes reached 150–300 mm ^3. The mice were sacrificed on the last day of drug administration, then the lungs were collected and metastatic nodules were counted manually for the evaluation of metastasis of 4T1 breast cancer.
# The normal group (A) and the vehicle group which treatment with 20% SBE (B) were control. Mouse lungs were taken at the last day of treatment and fixed with 4% paraformaldehyde for 24 h, then the lungs were photographed and the metastatic nodules were counted manually for further analysis. *P<0.05, **P<0.01.
Structure (SMILES),"tumor growth inhibition rate (T47D xenograft; reference compound group, 21 days, dose not given)",migration distance (MCF-7 cells),migration distance (T47D cells),"tumor growth inhibition rate (T47D xenograft; combination study, paclitaxel 10 mg/kg/week alone, 24 days, P<0.05)",number of metastatic nodules in the lungs vs vehicle group [1]
"CN(c1ncccc1CNc1nc(Nc2ccc3c(c2)CC(=O)N3)ncc1C(F)(F)F)S(C)(=O)=O [PF-562271, reference compound]",20%,significant reduction of migration,significant reduction of migration,–,–
"CC(=O)O[C@H]1C(=O)[C@@]2(C)[C@H]([C@H](OC(=O)c3ccccc3)[C@]3(O)C[C@H](OC(=O)[C@H](O)[C@@H](NC(=O)c4ccccc4)c4ccccc4)C(C)=C1C3(C)C)[C@]1(OC(C)=O)CO[C@@H]1C[C@@H]2O [paclitaxel, reference compound]",–,–,–,24%,reduced the number of metastatic nodules
